Experimental data taken from the NIST ThermoML archive (doi:10.1016/j.jct.2016.04.014).

Test: xn = mol fraction of the nth substance listed
Conditions: Liquid, Vibrating tube method

CCCCCCC [heptane] + CCO
mass density [kg/m3]
Conditions | 100 kPa | 500 kPa | 5000 kPa | 10000 kPa | 15000 kPa | 20000 kPa | 25000 kPa | 30000 kPa | 35000 kPa | 40000 kPa
293.15 K, x1 = 0.2505 | 737.7 | 738.1 | 742.1 | 746.4 | 750.4 | 754.3 | 757.9 | 761.4 | 764.7 | 768
293.15 K, x1 = 0.5004 | 711 | 711.3 | 715.4 | 719.8 | 723.8 | 727.7 | 731.3 | 734.8 | 738.1 | 741.4
293.15 K, x1 = 0.7501 | 694.3 | 694.6 | 698.7 | 703 | 707.1 | 710.9 | 714.6 | 718 | 721.4 | 724.6
303.15 K, x1 = 0.2505 | 728.9 | 729.3 | 733.6 | 738.2 | 742.4 | 746.5 | 750.3 | 754 | 757.5 | 760.8
303.15 K, x1 = 0.5004 | 702.1 | 702.5 | 706.9 | 711.5 | 715.8 | 719.9 | 723.8 | 727.4 | 730.9 | 734.3
303.15 K, x1 = 0.7501 | 685.4 | 685.8 | 690.3 | 694.9 | 699.2 | 703.3 | 707.1 | 710.8 | 714.3 | 717.6
313.15 K, x1 = 0.2505 | 719.9 | 720.3 | 725 | 729.8 | 734.3 | 738.6 | 742.6 | 746.5 | 750.1 | 753.7
313.15 K, x1 = 0.5004 | 693 | 693.4 | 698.2 | 703.1 | 707.7 | 712 | 716.1 | 720 | 723.7 | 727.2
313.15 K, x1 = 0.7501 | 676.4 | 676.9 | 681.6 | 686.6 | 691.2 | 695.5 | 699.6 | 703.4 | 707.1 | 710.6
323.15 K, x1 = 0.2505 | 710.6 | 711.1 | 716.1 | 721.2 | 726.1 | 730.6 | 734.8 | 738.9 | 742.7 | 746.4
323.15 K, x1 = 0.5004 | 683.6 | 684.1 | 689.2 | 694.5 | 699.4 | 704 | 708.4 | 712.4 | 716.3 | 720.1
323.15 K, x1 = 0.7501 | 667.2 | 667.6 | 672.8 | 678.1 | 683 | 687.7 | 692 | 696 | 699.9 | 703.6
333.15 K, x1 = 0.2505 | 701.1 | 701.6 | 706.9 | 712.5 | 717.6 | 722.4 | 726.9 | 731.2 | 735.2 | 739.1
333.15 K, x1 = 0.5004 | 674 | 674.5 | 680 | 685.7 | 691 | 695.9 | 700.5 | 704.8 | 708.9 | 712.8
333.15 K, x1 = 0.7501 | 657.7 | 658.2 | 663.8 | 669.6 | 674.9 | 679.8 | 684.3 | 688.6 | 692.7 | 696.6
353.15 K, x1 = 0.2505 | – | 681.4 | 687.7 | 694.1 | 700 | 705.5 | 710.5 | 715.3 | 719.7 | 724
353.15 K, x1 = 0.5004 | – | 654.2 | 660.8 | 667.5 | 673.6 | 679.1 | 684.3 | 689.1 | 693.7 | 698.1
353.15 K, x1 = 0.7501 | – | 638.4 | 645.1 | 651.8 | 657.9 | 663.5 | 668.6 | 673.4 | 678 | 682.3
373.15 K, x1 = 0.2505 | – | 659.3 | 666.9 | 674.5 | 681.4 | 687.6 | 693.3 | 698.6 | 703.6 | 708.4
373.15 K, x1 = 0.5004 | – | 632.2 | 640.2 | 648.1 | 655.3 | 661.7 | 667.5 | 672.9 | 678 | 682.9
373.15 K, x1 = 0.7501 | – | 617.2 | 625.3 | 633.3 | 640.4 | 646.8 | 652.6 | 658 | 663 | 667.9

CCCCCCCC [octane] + CCCCCCC
mass density [kg/m3]
Conditions | 100 kPa | 500 kPa | 5000 kPa | 10000 kPa | 15000 kPa | 20000 kPa | 25000 kPa | 30000 kPa | 35000 kPa | 40000 kPa
293.15 K, x2 = 0.25 | 698.22 | 698.6 | 702.4 | 706.4 | 710.2 | 713.8 | 717.2 | 720.4 | 723.6 | 726.6
293.15 K, x2 = 0.5002 | 693.9 | 694.3 | 698.1 | 702.2 | 706 | 709.7 | 713.2 | 716.5 | 719.6 | 722.7
293.15 K, x2 = 0.7502 | 689 | 689.4 | 693.4 | 697.5 | 701.4 | 705.1 | 708.7 | 712 | 715.2 | 718.4
303.15 K, x2 = 0.25 | 690.1 | 690.4 | 694.5 | 698.8 | 702.8 | 706.6 | 710.2 | 713.6 | 716.9 | 720.1
303.15 K, x2 = 0.5002 | 685.6 | 686 | 690.2 | 694.5 | 698.6 | 702.5 | 706.1 | 709.6 | 712.9 | 716.1
303.15 K, x2 = 0.7502 | 680.7 | 681 | 685.3 | 689.7 | 693.9 | 697.8 | 701.6 | 705.1 | 708.5 | 711.7
313.15 K, x2 = 0.25 | 681.8 | 682.2 | 686.5 | 691.1 | 695.4 | 699.4 | 703.2 | 706.8 | 710.2 | 713.5
313.15 K, x2 = 0.5002 | 677.3 | 677.7 | 682.1 | 686.8 | 691.1 | 695.2 | 699.1 | 702.7 | 706.2 | 709.6
313.15 K, x2 = 0.7502 | 672.2 | 672.6 | 677.2 | 681.9 | 686.3 | 690.5 | 694.4 | 698.1 | 701.7 | 705.1
323.15 K, x2 = 0.25 | 673.4 | 673.8 | 678.5 | 683.4 | 687.9 | 692.1 | 696.1 | 699.9 | 703.6 | 707
323.15 K, x2 = 0.5002 | 668.7 | 669.2 | 674 | 678.9 | 683.6 | 687.9 | 692 | 695.8 | 699.5 | 703
323.15 K, x2 = 0.7502 | 663.5 | 664 | 668.9 | 674 | 678.7 | 683.1 | 687.3 | 691.2 | 694.9 | 698.5
333.15 K, x2 = 0.25 | 664.9 | 665.4 | 670.4 | 675.6 | 680.4 | 684.9 | 689.2 | 693.2 | 696.9 | 700.6
333.15 K, x2 = 0.5002 | 660.2 | 660.6 | 665.8 | 671.1 | 676 | 680.6 | 684.9 | 689 | 692.8 | 696.5
333.15 K, x2 = 0.7502 | 654.8 | 655.3 | 660.6 | 666 | 671.1 | 675.8 | 680.2 | 684.3 | 688.2 | 692
353.15 K, x2 = 0.25 | 647.5 | 648.1 | 653.9 | 659.9 | 665.4 | 670.5 | 675.2 | 679.6 | 683.7 | 687.7
353.15 K, x2 = 0.5002 | 642.5 | 643.1 | 649.1 | 655.2 | 660.8 | 666 | 670.8 | 675.3 | 679.5 | 683.6
353.15 K, x2 = 0.7502 | 636.9 | 637.4 | 643.6 | 649.9 | 655.7 | 661 | 665.9 | 670.4 | 674.7 | 678.9
373.15 K, x2 = 0.25 | – | 630.3 | 637.1 | 644.1 | 650.3 | 656 | 661.2 | 666.1 | 670.7 | 675.1
373.15 K, x2 = 0.5002 | – | 625 | 632 | 639.2 | 645.6 | 651.4 | 656.7 | 661.7 | 666.3 | 670.8
373.15 K, x2 = 0.7502 | – | 619 | 626.3 | 633.6 | 640.2 | 646.2 | 651.7 | 656.7 | 661.5 | 666
